This is an account of results in patent publication US10472347B2, “Aminopyrazine compounds with A2A antagonist properties” (Merck Sharp & Dohme Corp., priority 2014, dated 2019).

The structures appear in SMILES notation.

This experiment deals with T1, human A2a receptor (Homo sapiens, UniProt P29274).
T1 construct: purchased Perkin-Elmer RBHA2AM400UA; host or cells: HEK293 cells (membranes)
Put plainly: A2a competition binding assay, Scintillation Proximity technology. The following applies: membranes from HEK293 cells expressing human A2a receptor; Ki by Cheng-Prusoff equation. How it is done: Binding affinities of compounds of the invention for the human A2a receptor were determined in a competition binding assay using Scintillation Proximity technology. Thus, […] from HEK293 cells expressing the human A2a receptor were incubated with a compound of the invention at concentrations ranging from 3000 nM to 0.15 nM in a reaction mixture containing also 0.5 nM of a tritiated form of 5-amino-7-[2-phenethyl]-2-(furan-2-yl)-7H-pyrazolo[4,3-e][1,2,4]triazolo[1,5-c]pyrimidine (the tritiated compound) and 100 μg of wheat germ agglutin-coated yttrium silicate SPA beads for one hour at room temperature with agitation. The beads were then allowed to settle to the bottom of the wells for 1 hr, after which the membrane-associated radioactivity was determined by scintillation counting in a TopCount microplate reader. Ki values were determined using the Cheng-Prusoff equation.
HEK293 cells expressing the human, rat, dog or monkey adenosine 2a receptor (Purchased from Perkin-Elmer # RBHA2AM400UA).
The Tritiated compound was prepared in-house by MRL Radiochemistry according to published methods.
Wheat germ agglutinin-coated yttrium silicate SPA beads (GE Healthcare #RPNQ0023). Dilute to 25 mg/ml in assay buffer.
Assay Buffer was prepared in house: Dulbecco's calcium and magnesium free phosphate buffered saline+10 mM MgCl2
Adenosine deaminase from calf intestine, 10 mg/2 ml (Roche #10 102 105 001).
A2a antagonist standard (9-chloro-1-(2-furanyl)-[1,2,4]triazolo1,5-c]quinazolin-5-amine from Tocris Bioscience)
Make eight 1:3 serial dilutions in 100% DMSO from a 3 mM compound stock
Transfer 50 nl of compound into a 384-well OptiPlate (Perkin Elmer).
Typically, final concentrations of compound used in the assay ranged from 3000 nM to 0.152 nM.
Dilute a solution of the Tritiated compound to 1.25 nM in assay buffer. This is a 2.5× solution. The final concentration in the assay is 0.5 nM. Calculate the concentration by counting two 5 μl aliquots.
Use 0.25 ug of membrane/well. Dilute membranes to 9.7 μg/ml in assay buffer. Treat with 20 ug/ml adenosine deaminase (ADA) for 15 minutes at room temperature to degrade endogenous adenosine.
Use 100 μg/well wheat germ agglutinin-coated yttrium silicate SPA beads.
Mix ADA-treated membranes and SPA beads together for 30 min prior to assay.
To the Perkin-Elmer Optiplate-384 containing the compound titration add 20 μl of 2.5× solution of the Tritiated compound and 30 μl of the membrane-bead mixture. Incubate for one hour at room temperature with agitation.
Include total binding (assay buffer+1% DMSO) and non-specific binding (CGS15943, 1 μM) wells.
Allow the beads to settle for one hour.
A curve fitting program (i.e., Prism, Activity Base, Chemcart) is used to determine the EC50. The Ki value is calculated using the Cheng-Prusoff equation. Ki=EC50/(1+(radioligand concentration/Kd))

T1 sequence (P29274 whole entry): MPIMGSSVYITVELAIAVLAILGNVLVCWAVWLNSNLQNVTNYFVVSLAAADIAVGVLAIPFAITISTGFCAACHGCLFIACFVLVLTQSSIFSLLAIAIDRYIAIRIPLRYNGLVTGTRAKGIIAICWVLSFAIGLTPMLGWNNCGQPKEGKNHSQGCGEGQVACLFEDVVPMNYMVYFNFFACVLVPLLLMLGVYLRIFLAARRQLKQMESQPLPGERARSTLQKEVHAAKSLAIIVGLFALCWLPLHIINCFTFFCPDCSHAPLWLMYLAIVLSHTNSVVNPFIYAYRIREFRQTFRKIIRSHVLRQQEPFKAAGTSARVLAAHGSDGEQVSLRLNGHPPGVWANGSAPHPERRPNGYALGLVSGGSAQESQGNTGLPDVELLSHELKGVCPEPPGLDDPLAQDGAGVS

Compound `Cc1cc(C)nc(CNC(=O)c2nc(C)c(-c3ncco3)nc2N)c1` [Ex-35, 3-amino-N-[(4,6-dimethylpyridin-2-yl)methyl]-6-methyl-5-(1,3-oxazol-2-yl)pyrazine-2-carboxamide] returned a Ki of 0.396 nM.
With `Cc1nc(C(=O)NCc2cccc3c2ncn3CC(F)F)c(N)nc1-c1ncco1` [Ex-36, 3-amino-N-{[1-(2,2-difluoroethyl)-1H-benzimidazol-4-yl]methyl}-6-methyl-5-(1,3-oxazol-2-yl)pyrazine-2-carboxamide] the figure was 0.464 nM; with `Cc1nc(C(=O)NCc2nc(C)c(C)n2C)c(N)nc1-c1ncco1` [Ex-37, 3-amino-6-methyl-5-(1,3-oxazol-2-yl)-N-[(1,4,5-trimethyl-1H-imidazol-2-yl)methyl]pyrazine-2-carboxamide], 7.77 nM.
The compound `Cc1nc(C(=O)NCc2ncn(C(C)C)c2C)c(N)nc1-c1ncco1` [Ex-38, 3-amino-6-methyl-N-{[5-methyl-1-(1-methylethyl)-1H-imidazol-4-yl]methyl}-5-(1,3-oxazol-2-yl)pyrazine-2-carboxamide] displayed a Ki of 2.27 nM.
With `Cc1nc(C(=O)NCc2cnco2)c(N)nc1-c1ncco1` [Ex-39, 3-amino-6-methyl-5-(1,3-oxazol-2-yl)-N-(1,3-oxazol-5-ylmethyl)pyrazine-2-carboxamide] the figure was 33.9 nM.
With `Cc1nc(C(=O)NCc2ccns2)c(N)nc1-c1ncco1` [Ex-40, 3-amino-N-(isothiazol-5-ylmethyl)-6-methyl-5-(1,3-oxazol-2-yl)pyrazine-2-carboxamide] the figure was 14.6 nM; with `Cc1ccc(C)c(CNC(=O)c2nc(C)c(-c3ncco3)nc2N)n1` [Ex-41, 3-amino-N-[(3,6-dimethylpyridin-2-yl)methyl]-6-methyl-5-(1,3-oxazol-2-yl)pyrazine-2-carboxamide], 0.593 nM; with `Cc1nc(C(=O)NCc2cc(C(F)(F)F)ccn2)c(N)nc1-c1ncco1` [Ex-42, 3-amino-6-methyl-5-(1,3-oxazol-2-yl)-N-{[4-(trifluoromethyl)pyridin-2-yl]methyl}pyrazine-2-carboxamide], 0.672 nM.
For the compound `COc1cccnc1CNC(=O)c1nc(C)c(-c2ncco2)nc1N` [Ex-43, 3-amino-N-[(3-methoxypyridin-2-yl)methyl]-6-methyl-5-(1,3-oxazol-2-yl)pyrazine-2-carboxamide], the affinity, expressed as Ki, was 0.116 nM.
With `Cc1nc(C(=O)NCc2nccn2CC(F)F)c(N)nc1-c1ncco1` [Ex-44, 3-amino-N-{[1-(2,2-difluoroethyl)-1H-imidazol-2-yl]methyl}-6-methyl-5-(1,3-oxazol-2-yl)pyrazine-2-carboxamide] the figure was 0.533 nM; with `Cc1nc(C(=O)NCc2cc(Cl)ccn2)c(N)nc1-c1ncco1` [Ex-45, 3-amino-N-[(4-chloropyridin-2-yl)methyl]-6-methyl-5-(1,3-oxazol-2-yl)pyrazine-2-carboxamide], 0.735 nM; with `Cc1nc(C(=O)NCc2ccncc2Cl)c(N)nc1-c1ncco1` [Ex-46, 3-amino-N-[(3-chloropyridin-4-yl)methyl]-6-methyl-5-(1,3-oxazol-2-yl)pyrazine-2-carboxamide], 5.59 nM.
With `Cc1nc(C(=O)NCc2ncc(F)cc2Cl)c(N)nc1-c1ncco1` [Ex-47, 3-amino-N-[(3-chloro-5-fluoropyridin-2-yl)methyl]-6-methyl-5-(1,3-oxazol-2-yl)pyrazine-2-carboxamide] the figure was 1.8 nM; with `Cc1ccnnc1CNC(=O)c1nc(C)c(-c2ncco2)nc1N` [Ex-48, 3-amino-6-methyl-N-[(4-methylpyridazin-3-yl)methyl]-5-(1,3-oxazol-2-yl)pyrazine-2-carboxamide], 1.01 nM.
With `Cc1nc(C(=O)NCc2ccc(Cl)cn2)c(N)nc1-c1ncco1` [Ex-49, 3-amino-N-[(5-chloropyridin-2-yl)methyl]-6-methyl-5-(1,3-oxazol-2-yl)pyrazine-2-carboxamide] the figure was 1.26 nM.
On to `Cc1nc(C(=O)NCc2cccn(C)c2=O)c(N)nc1-c1ncco1` [Ex-50, 3-amino-6-methyl-N-[(1-methyl-2-oxo-1,2-dihydropyridin-3-yl)methyl]-5-(1,3-oxazol-2-yl)pyrazine-2-carboxamide], for which the Ki stood at 1.25 nM.
With `Cc1nc(C(=O)NCc2ccccn2)c(N)nc1-c1ncco1` [Ex-51, 3-amino-6-methyl-5-(1,3-oxazol-2-yl)-N-(pyridin-2-ylmethyl)pyrazine-2-carboxamide] the figure was 0.717 nM; with `Cc1nc(C(=O)NCc2cccc[n+]2[O-])c(N)nc1-c1ncco1` [Ex-52, 3-amino-6-methyl-5-(1,3-oxazol-2-yl)-N-[(1-oxidopyridin-2-yl)methyl]pyrazine-2-carboxamide], 4.88 nM; with `Cc1nc(C(=O)NCc2ccc(F)nc2)c(N)nc1-c1ncco1` [Ex-53, 3-amino-N-[(6-fluoropyridin-3-yl)methyl]-6-methyl-5-(1,3-oxazol-2-yl)pyrazine-2-carboxamide], 26.1 nM.
`Cc1nc(C(=O)NCc2cc(C(F)(F)F)cc(Cl)n2)c(N)nc1-c1ncco1` [Ex-54, 3-amino-N-{[6-chloro-4-(trifluoromethyl)pyridin-2-yl]methyl}-6-methyl-5-(1,3-oxazol-2-yl)pyrazine-2-carboxamide] yielded a Ki of 1.77 nM.
Consider `COc1ccc(CNC(=O)c2nc(C)c(-c3ncco3)nc2N)nc1C(F)(F)F` [Ex-55, 3-amino-N-{[5-methoxy-6-(trifluoromethyl)pyridin-2-yl]methyl}-6-methyl-5-(1,3-oxazol-2-yl)pyrazine-2-carboxamide], for which affinity was put at a Ki of 3.89 nM. This Ki lies about 2.2-fold higher than the previous one.
Compound `Cc1cnnc(CNC(=O)c2nc(C)c(-c3ncco3)nc2N)c1` [Ex-56, 3-amino-6-methyl-N-[(5-methylpyridazin-3-yl)methyl]-5-(1,3-oxazol-2-yl)pyrazine-2-carboxamide] returned a Ki of 21.5 nM.
With `Cc1nc(C(=O)NCc2ccc(F)cn2)c(N)nc1-c1ncco1` [Ex-57, 3-amino-N-[(5-fluoropyridin-2-yl)methyl]-6-methyl-5-(1,3-oxazol-2-yl)pyrazine-2-carboxamide] the figure was 1.03 nM; with `Cc1nc(C(=O)NCc2nccc(OCC(F)(F)F)c2C)c(N)nc1-c1ncco1` [Ex-58, 3-amino-6-methyl-N-{[3-methyl-4-(2,2,2-trifluoroethoxy)pyridin-2-yl]methyl}-5-(1,3-oxazol-2-yl)pyrazine-2-carboxamide], 4.56 nM.
For `Cc1nc(C(=O)NCc2ccc(C(F)(F)F)cn2)c(N)nc1-c1ncco1` [Ex-59, 3-amino-6-methyl-5-(1,3-oxazol-2-yl)-N-{[5-(trifluoromethyl)pyridin-2-yl]methyl}pyrazine-2-carboxamide], the Ki is 14.8 nM. Against the preceding compound, the Ki is about 3.2-fold higher.
The compound `Cc1nc(C(=O)NCC(C)(C)c2ccncc2)c(N)nc1-c1ncco1` [Ex-60, 3-amino-6-methyl-N-(2-methyl-2-pyridin-4-ylpropyl)-5-(1,3-oxazol-2-yl)pyrazine-2-carboxamide] came in with a Ki of 9.2 nM. This Ki lies about 1.6-fold lower than the previous one.
Take `Cc1nc(C(=O)NCc2cc(F)ccn2)c(N)nc1-c1ncco1` [Ex-61, 3-amino-N-[(4-fluoropyridin-2-yl)methyl]-6-methyl-5-(1,3-oxazol-2-yl)pyrazine-2-carboxamide]: the affinity, expressed as Ki, was 2.46 nM.
The compound `Cc1nc(C(=O)NCc2ncc(F)cc2F)c(N)nc1-c1ncco1` [Ex-62, 3-amino-N-[(3,5-difluoropyridin-2-yl)methyl]-6-methyl-5-(1,3-oxazol-2-yl)pyrazine-2-carboxamide] registered a Ki of 0.622 nM. This Ki is about 4-fold lower than that of the compound before.
With `Cc1nc(C(=O)NCc2cc(C(F)F)cc(C(F)F)n2)c(N)nc1-c1ncco1` [Ex-63, 3-amino-N-{[4,6-bis(difluoromethyl)pyridin-2-yl]methyl}-6-methyl-5-(1,3-oxazol-2-yl)pyrazine-2-carboxamide] the figure was 2.52 nM; with `Cc1nc(C(=O)NCc2cccnc2O)c(N)nc1-c1ncco1` [Ex-64, 3-amino-N-[(2-hydroxypyridin-3-yl)methyl]-6-methyl-5-(1,3-oxazol-2-yl)pyrazine-2-carboxamide], 1.5 nM.
With `Cc1nc(C(=O)NCc2cccnc2Cl)c(N)nc1-c1ncco1` [Ex-65, 3-amino-N-[(2-chloropyridin-3-yl)methyl]-6-methyl-5-(1,3-oxazol-2-yl)pyrazine-2-carboxamide] the figure was 4.19 nM.
